In data set [1] the test system is Sprague-Dawley rats. Kind of data set: Pharmacological effect and adverse reactions under the equivalent dose (2ED50), Group C compounds. Type of data set: in vivo. As to conditions: for Righting reflex duration / Sedation duration / Onset time: 2ED50, tail vein, rats, n=8; for Adverse reaction: Convulsions / Adverse reaction: Cough, broken-winded / Adverse reaction: Euphoria / Adverse reaction: Red urine / Adverse reaction: Slower breathing, Tetany convulsion / Adverse reaction: Systemic stiffness, Convulsions, Opisthotonus / Adverse reaction: Tongue stretching / Adverse reaction: Tremor / Adverse reaction: the four limbs rigidity: equivalent dose (2ED50), number of rats of n = 8. The text has this:
Evaluation index: onset time: from the completion of drug injection to the disappearance of forepaw righting reflex in rats; Duration of anesthesia: the time from the disappearance of rat forepaw righting reflex to the recovery of rat forepaw righting reflex; Recovery time of anesthesia: the time from the […] to complete recovery;

Data set [2] deals with Sprague-Dawley rats. Type of data set: in vivo. As to conditions: tail vein.
Data set [3] has as its system Sprague-Dawley rats. Kind of data set: animal or person. As to conditions: rats; for ED50: Rattus norvegicus, LORR, up and down method, tail vein, class symbols, read-out: ED50. Type of data set: in vivo. The text has this: Evaluating indicator: The end point of anesthesia: LORR was used as the end point of anesthesia; General anesthesia effect: the disappearance of forepaw righting reflex in rats lasting for 30 seconds is taken as the index of general anesthesia effect; Anesthesia recovery index: the recovery of rat forepaw righting reflex was used as the index of anesthesia recovery.

The subject of the next data set is H295R cell line. Kind of data set: Adrenocortical function in vitro test: secretion of cortisol and corticosterone, Group A compounds. The data set is classed as cell-based. As to conditions: H295 cells; for EC50: Homo sapiens, 0.1-10000 nM, HPLC-MS/MS.
The subject of data set [4] is Sprague-Dawley rats. The settings on record: for Recovery time after stopping infusion: LORR maintained for 1 hour; for Recovery time after stopping infusion / Onset time: 2 times the MIR; for Onset time / Types and incidence of adverse reactions: continuous infusion; for Types and incidence of adverse reactions: (animals affected/animals). As to the method:
Adult male Sprague-Dawley rats with body weight ranging from 250 to 300 gm were selected for continuous infusion test. […] Time to recovery of righting reflex from stopping infusion, and time to fully awake from stopping infusion were recorded.

The subject of data set [5] is Sprague-Dawley rats. Kind of data set: animal or person. The settings on record: for ED50: Rattus norvegicus; for Approximate therapeutic index / Minimal lethal dose: rats. As to the method:
Adult male Sprague-Dawley rats (250-300 g) were selected for the experiment. […] The anesthesia effects of the compounds were assessed in rats using a LORR assay and a period >30 s was considered as an indicator of general anesthesia.

For data set [6], the system named is Sprague-Dawley rats. Kind of data set: Pharmacological characteristics at equivalent doses (2ED50), Group A compounds. Type of data set: in vivo. The settings on record: 2ED50, tail vein; for Types and incidence of adverse reactions: (animals affected/animals).
Where [7] appears, read: read-out: EC50 (Corticosterone).

“And” between values parts separate entries of the source, which are not always exact repeats. Identical values can stand only once. “Also recorded” adds a separate entry of the source. Like-named read-outs stand apart in the source and are kept apart here.

For the molecule `CC#CCC(=O)c1cncn1[C@H](C)c1ccccc1` [Compound C57], in the data set with Sprague-Dawley rats [1], the Righting reflex duration was 1.89 ± 0.29 min; the Sedation duration turned out to be 6.12 ± 1.14 min; the “Adverse reaction: Convulsions” value is recorded as 0; the “Adverse reaction: Cough, broken-winded” value worked out at 0. Besides, in the data set with Sprague-Dawley rats [1], the “Adverse reaction: Euphoria” value amounted to 0; the “Adverse reaction: Red urine” value is given as 8; the “Adverse reaction: Slower breathing, Tetany convulsion” value was 0; the “Adverse reaction: Systemic stiffness, Convulsions, Opisthotonus” value came out at 0. Further, in the data set on Sprague-Dawley rats [1], the “Adverse reaction: Tongue stretching” value stood at 2, the “Adverse reaction: Tremor” value stood at 1 and the “Adverse reaction: the four limbs rigidity” value worked out at 0. Besides, the Onset time in the data set on Sprague-Dawley rats [1] (unit min) is listed as under 1 min. In addition, the Minimal lethal dose in the data set with Sprague-Dawley rats [2] was over 13.61 mg/kg. For the same molecule, in the data set on Sprague-Dawley rats [3], the ED50 was in the range of 2 to 10 mg/kg and the Approximate therapeutic index was over 16.6.
Consider `CCSCC(=O)c1ccnn1[C@H](C)c1ccccc1` [Compound C9, (R)-2-(ethylthio)-1-(1-(1-phenylethyl)-1H-pyrazol-5-yl)ethan-1-one], for which, in the data set with Sprague-Dawley rats [1], the Righting reflex duration is on record as 1.56 ± 0.89 min; the Sedation duration is 6.62 ± 0.72 min; the “Adverse reaction: Convulsions” value stood at 0; the “Adverse reaction: Cough, broken-winded” value was determined as 0. Also, in the data set on Sprague-Dawley rats [1], the “Adverse reaction: Euphoria” value is reported as 0; the “Adverse reaction: Red urine” value is reported as 8; the “Adverse reaction: Slower breathing, Tetany convulsion” value amounted to 0; the “Adverse reaction: Systemic stiffness, Convulsions, Opisthotonus” value came out at 0. Besides, in the data set with Sprague-Dawley rats [1], the “Adverse reaction: Tongue stretching” value stood at 0, the “Adverse reaction: Tremor” value was found to be 0 and the “Adverse reaction: the four limbs rigidity” value is 0. Besides, the Onset time in the data set on Sprague-Dawley rats [1] (unit s) was under 0.5 min. This molecule also displayed a Minimal lethal dose in the data set with Sprague-Dawley rats [2] of over 10.2 mg/kg. In addition, in the data set with Sprague-Dawley rats [3], the 50% effective dose (ED50) lay in the range of 2 to 10 mg/kg and the Approximate therapeutic index is over 2.1.
With `CC(=O)C1=C(OC(=O)c2c(F)cnn2[C@H](C)c2ccccc2)CCC1` [Compound A90], in the data set on H295R cell line, the “Corticosterone as an indicator to determine the presence of inhibition” value (“Corticosterone as an indicator … of inhibition” for short) is 0 and the “Cortisol as an indicator to determine the presence of inhibition” value (shortened to “Cortisol as an indicator … of inhibition”) was determined as 0. The concentration giving a half-maximal response (EC50) with H295R cell line (setting [7]) is over 1000 nM. The 50% effective concentration (EC50) with H295R cell line (read-out: EC50 (Cortisol)) was over 1000 nM. In addition, in the data set with Sprague-Dawley rats [4], the “Recovery time after stopping infusion” value is 2 to 15 min; the Onset time fell in the range of 5 to 6 min; the “Types and incidence of adverse reactions” value is given as “Tremor(3/6)”. In the data set with Sprague-Dawley rats [5], this molecule registered an ED50 of 1 to 2 mg/kg, an Approximate therapeutic index of over 5 and a Minimal lethal dose of over 10 mg/kg. Further, in the data set with Sprague-Dawley rats [6], the Onset time came out at 0.51 ± 0.07 min; the Righting reflex duration is 5.21 ± 1.45 min; the “Types and incidence of adverse reactions” value was “Red and urine(8/8), Convulsions(2/ and 8), Nod(1/8)”.
Regarding `C[C@H](c1ccccc1)n1nccc1C(=O)OC1(C)COC1` [Compound A30], in the data set with H295R cell line, the “Corticosterone as an indicator … of inhibition” value amounted to 0 and the “Cortisol as an indicator … of inhibition” value was determined as 0. Moreover, the EC50 in the data set on H295R cell line (setting [7]) was over 1000 nM. The 50% effective concentration (EC50) in the data set on H295R cell line (read-out: EC50 (Cortisol)) is over 1000 nM. Moreover, in the data set on Sprague-Dawley rats [4], the “Recovery time after stopping infusion” value is 8 to 14 min; the Onset time lay within 3 to 4 min; the “Types and incidence of adverse reactions” value is “Tremor(2/6)”. In the data set on Sprague-Dawley rats [5], this molecule displayed an ED50 of 1 to 2 mg/kg, an Approximate therapeutic index of over 6 and a Minimal lethal dose of over 7 mg/kg. Also, in the data set on Sprague-Dawley rats [6], the Onset time is 0.3 ± 0.22 min; the Righting reflex duration is on record as 2.6 ± 0.83 min; the “Types and incidence of adverse reactions” value was “Red and urine(8/8), Euphoria(3/8), and Tremor(1/8)”.
For the molecule `C=C=CC1(OC(=O)c2ccnn2[C@H](C)c2ccccc2)COC1` [Compound A24], in the data set with H295R cell line, the “Corticosterone as an indicator … of inhibition” value was 0 and the “Cortisol as an indicator … of inhibition” value is recorded as 0. Moreover, the concentration for a half-maximal effect (EC50) in the data set on H295R cell line (setting [7]) is over 1000 nM. Moreover, the EC50 with H295R cell line (read-out: EC50 (Cortisol)) was over 1000 nM. Moreover, in the data set on Sprague-Dawley rats [4], the “Recovery time after stopping infusion” value lay within 8 to 12 min; the Onset time was in the range of 4 to 5 min; the “Types and incidence of adverse reactions” value is listed as “Tremor(2/6), Tongue; also recorded: stretching(4/6)”. Moreover, in the data set on Sprague-Dawley rats [5], the ED50 fell in the range of 0.04 to 0.5 mg/kg, the Approximate therapeutic index is given as over 31 and the Minimal lethal dose is given as over 6 mg/kg. In the data set on Sprague-Dawley rats [6], the Onset time was 0.47 ± 0.09 min; the Righting reflex duration was 1.47 ± 0.63 min; the “Types and incidence of adverse reactions” value is “Red and urine(8/8), Convulsions(5/ and 8), Hindlimb rigidity (2/8)”.

What is called ED50 is the dose that gives a 50% effect, or the effect in half of the subjects. The term EC50 denotes the concentration that produces a half-maximal response.

The values above are taken from patent US12570612B2, “Substituted nitrogen heterocyclic compound and anesthetic effect thereof” (priority 2019, dated 2026).
